From US12128098B2, “Non-specific delayed-type hypersensitivity response to treat herpes simplex virus infection” (Squarex, LLC, priority 2015, dated 2024)
Values joined by “and” are separate entries in the source; they are usually repeats but may differ in a detail not shown here. Equal entries are not always repeated. “Also recorded” adds a separate entry of the source. Marks after values point to notes of the source that are not given here.

Key:
[1] = system: HSV outbreak (cold sore on lower lip); assay: Treatment of an individual suffering from frequent and severe cold sores with topical DNCB at the site of the lesion; assay type: in vivo, human
Description: The individual treated was one of the inventors. They are a person and was […] at the time of this treatment. The subject suffered from frequent cold sores on the lower lip. The outbreaks typically lasted 7-10 days and frequently longer. The subject had suffered from frequent cold sores most of their life. During the 6 months prior to this treatment, the outbreaks had been almost continuous. After getting over one outbreak, the next outbreak would begin often within a week.
In the morning they washed it off. A mild erythema in the area of the cold sore developed over 2-3 days and lasted a further 5 days, and the cold sore resolved in about 7 days, which was a typical duration for this individual or a slightly shorter duration than normal. […] Each outbreak would begin and completely resolve in one day. […] We think this may be because the immune system was recognizing not just the DNCB but also the herpes virus antigens with this second application. With the greater inflammation, the cold sore outbreak was worse than any of the outbreaks between the first and second DNCB treatments. […] The outbreak seemed to worsen as the inflammation associated with the DTH response worsened, and only lessened when the DTH response subsided.
When the outbreak subsided, the subject went another 6 months without any outbreaks to the present time.
For several months before and for the entire time described herein after the initial DNCB treatment, the subject took no antiviral medicines.

[2] = Presensitization and dose finding with DNCB solutions on the forearm (rash / erythema, DTH response); assay type: in vivo, human; conditions: for erythema on forearm: sensitized subject
Description: The subject then applied a 0.1%, 0.2%, and 0.3% solutions to separate small spots on the forearm.

warts = conditions: intralesional injection together with antigens versus antigen alone; differences not statistically significant; US 20050175634; cited from earlier work
[3] = Clinical trial of SADBE: rash (erythema) from the sensitization dose; assay type: in vivo, human; conditions: pooled treatment groups B and C, 2% SADBE in DMSO
Description: Visit 1: Upon entering the study, patients are sensitized to squaric acid dibutyl ester (SADBE) by dipping a cotton-tipped swab in a 2% solution of SADBE in DMSO and swabbing a 1 cm^2 area on the forearm. Participants are told then to wait at least 2 weeks for their first treatment.

[4] = system: herpes labialis (HSV cold sore outbreaks); assay: Clinical trial: treatment of herpes labialis by squaric acid dibutyl ester, time to and proportion of cold sore outbreaks after the sensitization dose; assay type: in vivo, human; conditions: for Average days to first outbreak after the sensitization dose: 120 days used if no outbreak in 120 days
Procedure: Thirty patients are recruited meeting the following criteria:
In a screening interview, vital signs are recorded, and information is collected on any medications the patient is currently taking, previous and current treatments for cold sores, severity and duration of cold sores.
[…] Participants are told then to wait at least 2 weeks for their first treatment.
Throughout the study, the participants are asked to maintain a subject diary, in which they record each day any symptoms they experience, including fever, swelling, pain, redness, itching, burning, the size of any lesions, and any medications taken.
Visit 2: After the 2-week period to allow development of sensitivity to SADBE, upon the beginning of his or her next outbreak (within 72 hours of the first signs of an outbreak), each participant is swabbed at the site of the herpes labialis lesion with a 0.5% solution of SADBE in DMSO.
Visit 3: Upon the next distinct outbreak at least 2 weeks after the previous treatment at visit 2, study diaries are collected. If the diary reflects redness, blistering, or burning greater than 0.5 cm beyond the clinical lesion with the previous SADBE treatment, the dosage of SADBE is decreased to 0.1%. If the diary reflects no redness or inflammation attributable to SADBE treatment, dosage is increased to 2%. Otherwise, dosage is maintained at 0.5%. Participants are swabbed at the site of the herpes labialis lesion with the SADBE solution.
If the hypersensitivity reaction produced by SADBE is excessive, patients are treated with a topical steroidal antiinflammatory cream. When a patient requests, outbreaks are treated with oral valacyclovir until the outbreak resolves.
For at least 6 months after visit 2, patients maintain their diaries. Every two months the diaries are collected.
A total of 46 patients have been enrolled in the study and have not dropped out.
The p value was calculated using the Fischer's two-tailed exact test.
The average days to the first outbreak after the sensitization dose was also measured. […] The A: placebo, 0% SADBE in DMSO.

[5] = third treatment, 0.1% DNCB solution on cold sore

O=[N+]([O-])c1ccc(Cl)c([N+](=O)[O-])c1 [DNCB, 1-chloro-2,4-dinitrobenzene]
severity and duration of subsequent outbreaks ([1]; 4 weeks following the first 0.2% DNCB treatment of the lip lesion): much less severe and of much shorter duration than before | time without any outbreak after treatment ([1]; after the third treatment (0.1% DNCB), to the present time): 6 months | erythema in the area of the cold sore ([1]; first application of 0.2% DNCB in acetone to cold sore on lower lip, left overnight): mild erythema | time to resolution of the treated cold sore ([1]; first application of 0.2% DNCB in acetone to the lip lesion, typical outbreaks before lasted 7-10 days): about 7 days | time without any outbreak after treatment ([1]; following the second DNCB treatment at the site of a lesion): 6 months | frequency of cold sore outbreaks after treatment ([1]; next 4 weeks following the first 0.2% DNCB treatment): approximately weekly | duration of each subsequent outbreak ([1]; outbreaks in the 4 weeks following the first 0.2% DNCB treatment): one | inflammation and erythema with the application ([1]; second application of 0.2% DNCB in acetone to lip lesion, about two months after the first): more severe than they had been with the first application | duration of the treated HSV outbreak ([1]; second application of 0.2% DNCB to lip lesion): about 7 days | DTH response at the cold sore [1, 5]: moderate DTH response | duration of the treated HSV outbreak [1, 5]: about 10 days | erythema on forearm ([2]; 0.1% DNCB solution): almost no erythema | erythema on forearm ([2]; 0.2% DNCB solution): mild but easily seen erythema | rash after presensitizing application ([2]; 2% DNCB solution in acetone, cotton-tipped swab, two spots on forearm, first application): No rash developed | duration of rash after second application ([2]; 2% DNCB solution on forearm, two weeks after the sensitizing dose): 3 weeks | rash after second application ([2]; 2% DNCB solution on forearm, two weeks after the sensitizing dose, different spots): very strong but localized rash

GM-CSF: cytokine used as immune response enhancer
fraction of patients responding to treatment (warts): A larger fraction of patients receiving interferon or GM-CSF together with the antigens responded to treatment than patients receiving antigen alone

CCCCOc1c(OCCCC)c(=O)c1=O [SADBE, 3,4-Dibutoxy-3-cyclobutene-1,2-dione]
subjects who had a rash (erythema) from the sensitization dose [3]: 17 of 28 | Persons having an outbreak within X days after the sensitization dose ([4]; <120 days, group B): 6 (of 16) | Persons having an outbreak within X days after the sensitization dose ([4]; <120 days, group C): 4 (of 15) | Days to first new outbreak after sensitization dose on upper arm ([4]; each patient, 2% SADBE applied to the inner aspect of the upper arm): 37 days and 41 days and 50 days and 80 days and 91 days and >120 days (19×) and 14 days (2×) and 15 days and 18 days and 34 days | Average days to first outbreak after the sensitization dose ([4]; group B, n 16): 88.5 days | Average days to first outbreak after the sensitization dose ([4]; group C, n 15): 94.7 days | Average days to first outbreak after the sensitization dose ([4]; pooled groups B + C, n 31, p=0.041 vs placebo, t test): 91.5* days | proportion who had a first outbreak between 30 and 120 days after receiving the sensitization dose ([4]; pooled groups B and C): 5 of 26 | effect on future HSV outbreaks ([4]; single topical sensitization dose of 2% SADBE in DMSO on the upper arm, no application at the lesion): prevented future HSV outbreaks; also recorded: usually did not have a subsequent outbreak during the study time | median time to the next HSV outbreak versus placebo ([4]; treated patients who did not develop a visible erythema at the site of application): longer median time to the next HSV outbreak than patients receiving placebo | median time to the next outbreak, outbreaks occurring in the 21 days after the sensitization dose excluded ([4]; treatment group, counting from the day of the sensitization dose): greater than 120 days | median time to the next outbreak counting from day 21 after the sensitization dose ([4]; treatment group, outbreaks in first 21 days excluded): greater than 99 days | Persons having an outbreak within X days after the sensitization dose ([4]; within 30 days, group B (2% SADBE in DMSO sensitization, 0.5% treatment solution)): 2 (of 16) | Persons having an outbreak within X days after the sensitization dose ([4]; within 30 days, group C (2% SADBE in DMSO sensitization, 0.2% treatment solution)): 3 (of 15) | Persons having an outbreak within X days after the sensitization dose ([4]; within 30 days, pooled groups B + C (of 31), p vs placebo 0.26): 5 | Persons having an outbreak within X days after the sensitization dose ([4]; within 45 days, group B): 4 (of 16) | Persons having an outbreak within X days after the sensitization dose ([4]; within 45 days, group C): 4 (of 15) | Persons having an outbreak within X days after the sensitization dose ([4]; within 45 days, pooled groups B + C (of 31), p vs placebo 0.099): 8 | Persons having an outbreak within X days after the sensitization dose ([4]; within 60 days, group B): 5 (of 16) | Persons having an outbreak within X days after the sensitization dose ([4]; within 60 days, group C): 4 (of 15) | Persons having an outbreak within X days after the sensitization dose ([4]; within 60 days, pooled groups B + C (of 31), p vs placebo 0.0583): 9

interferon alpha
fraction of patients responding to treatment (warts): A larger fraction of patients receiving interferon or GM-CSF together with the antigens responded to treatment than patients receiving antigen alone
